Where “and” joins values, the source holds several entries; their conditions need not be identical. Identical values can stand only once.
Assays:
[1] = test system: Hyline W-36 and Brown layer hens; experiment: Example 3: offspring sex ratio after acute corticosterone injection five hours before ovulation, laying hens; format: in vivo, chicken
Procedure: Hyline W-36 and Brown layer hens were housed in individual layer cages in a single room, had ad libitum access to food and water, and maintained on a 14 h L:10 h D light schedule. Hens were artificially inseminated biweekly with pooled semen from 8 roosters to ensure egg fertilization. Hens were monitored throughout the day for egg-laying and eggs were collected manually every 2 h during peak-laying hours. Previous studies in laying hens have shown that ovulation occurs within 30 minutes of oviposition (Johnson, A. L. Reproduction in the female, in Sturkie's Avian Physiology. G. C. Whittow, Editor. 2000, Academic Press: New York, N.Y. p. 569-596); therefore, egg laying patterns can be used to predict the timing of ovulation.
Injection treatments were administered to hens subcutaneously in the back of the neck five hours prior to the predicted time of ovulation with one of the following treatments: 0.5 ml of control peanut oil (CONT) or 1.5 mg corticosterone dissolved in 0.5 ml of peanut oil (CORT). Ovulated follicles took 24 h to pass through the remainder of the reproductive tract and were collected at oviposition (FIG. 6). […]
Statistical Analysis. […] Plasma corticosterone concentrations were analyzed among treatment groups and time points using an ANOVA and differences among individual treatment groups were analyzed using Fisher's PLSD. […]

[2] = Example 3: plasma corticosterone radioimmunoassay after injection, laying hens; format: in vivo, chicken; conditions: 1.5 mg
Procedure: Radioimmunoassays. Blood samples were collected from a separate set of hens to verify that CORT treatment elevated plasma corticosterone during the completion of meiotic segregation. Relative to the injections described above (5 h prior to ovulation), blood samples were collected from half of the CORT, CONT, and UN-treated hens at 1 h and the other half at 4 h (FIG. 6). Blood samples were collected from the brachial vein within 3 min of initial handling to avoid variation due to handling stress (Romero and Reed, 2005, Comp Biochem Physiol A; 140:73-79). Extraction and radioimmunoassay of plasma corticosterone were completed as described by Mendonça et al. (Mendonça et al., 1996, Horm Behav; 30:153-161). Twenty-four blood samples were analyzed from UN-treated hens (12 from each time period), 12 from CONT-treated hens (5 and 7 at 1 h and 4 h, respectively), and 12 from CORT-treated hens (6 from each time period).
Statistical Analysis. […] All hormone data were non-normally distributed and were log-transformed for statistical analysis. Plasma corticosterone concentrations were analyzed among treatment groups and time points using an ANOVA and differences among individual treatment groups were analyzed using Fisher's PLSD. Statistical analyses were carried out using Statview software (SAS Institute, Cary, N.C. USA).

[3] = Testosterone concentrations after a pharmacological dose of CORT (Examples 1 and 2); format: in vivo, zebra finches; conditions: within 1-3 hours of administration

## C[C@]12C[C@H](O)[C@H]3[C@@H](CCC4=CC(=O)CC[C@@]43C)[C@@H]1CC[C@@H]2C(=O)CO [corticosterone]
[1]; 1.5 mg in 0.5 ml peanut oil subcutaneously five hours before ovulation, p=0.01 vs all hens the day before, p=0.72 vs control injection
  males produced (offspring sex ratio): ~83% and 82.6%
[1]; 1.5 mg, target versus pre-target eggs, p=0.02
  males produced after treatment compared to before treatment, same hens: produced significantly more males
[2]; 1 h after injection, p<0.0001 in both cases
  plasma corticosterone levels compared to CONT and UN treated hens: significantly raised corticosterone levels
[2]; four hours post-injection, CORT-UN p<0.01, CORT-CONT p=0.07
  plasma corticosterone concentrations: only significantly elevated in CORT-treated hens
[3]
  testosterone concentrations after CORT: testosterone concentrations increased significantly

Source: US8889662B2, “Method to alter sex ratios in avian offspring” (University of Georgia Research Foundation, Inc., priority 2009, dated 2014)
